Activity calls are given as the source filed them. No rule for the calls is given here.
System: CCRIS mutagenicity, Ames/micronucleus/aberration tests
Assay: CCRIS mutagenicity studies
[1] = Test System: AMES SALMONELLA TYPHIMURIUM, Strain/Indicator: TA98, Metabolic Activation: NONE, Method: PREINCUBATION
[2] = Test System: AMES SALMONELLA TYPHIMURIUM, Strain/Indicator: TA100, Metabolic Activation: NONE, Method: PREINCUBATION
[3] = Test System: AMES SALMONELLA TYPHIMURIUM, Strain/Indicator: TA100, Metabolic Activation: RAT, LIVER, S-9, AROCLOR 1254, Method: PREINCUBATION
[4] = Test System: AMES SALMONELLA TYPHIMURIUM, Strain/Indicator: TA98, Metabolic Activation: NONE, Method: STANDARD PLATE
[5] = Test System: AMES SALMONELLA TYPHIMURIUM, Strain/Indicator: TA98, Metabolic Activation: RAT, LIVER, S-9, AROCLOR 1254, Method: STANDARD PLATE
[6] = Test System: AMES SALMONELLA TYPHIMURIUM, Strain/Indicator: TA100, Metabolic Activation: NONE, Method: STANDARD PLATE
[7] = Test System: AMES SALMONELLA TYPHIMURIUM, Strain/Indicator: TA100, Metabolic Activation: RAT, LIVER, S-9, AROCLOR 1254, Method: STANDARD PLATE

With `C1=C\CC/C=C\CC/1.C1=C\CC/C=C\CC/1.[Ni]` the mutagenic call (Test System: AMES SALMONELLA TYPHIMURIUM, Strain/Indicator: TA97, Metabolic Activation: HAMSTER, LIVER, S-9, AROCLOR 1254 (10%), Method: PREINCUBATION) was “inactive; negative”, the mutagenic call (Test System: AMES SALMONELLA TYPHIMURIUM, Strain/Indicator: TA97, Metabolic Activation: HAMSTER, LIVER, S-9, AROCLOR 1254 (30%), Method: PREINCUBATION) was “inactive; negative” and the mutagenic call (Test System: AMES SALMONELLA TYPHIMURIUM, Strain/Indicator: TA97, Metabolic Activation: NONE, Method: PREINCUBATION) was “inactive; negative”. The mutagenic call (Test System: AMES SALMONELLA TYPHIMURIUM, Strain/Indicator: TA97, Metabolic Activation: RAT, LIVER, S-9, AROCLOR 1254 (10%), Method: PREINCUBATION) was “inactive; negative”, the mutagenic call (Test System: AMES SALMONELLA TYPHIMURIUM, Strain/Indicator: TA97, Metabolic Activation: RAT, LIVER, S-9, AROCLOR 1254 (30%), Method: PREINCUBATION) was “inactive; negative” and the mutagenic call (Test System: AMES SALMONELLA TYPHIMURIUM, Strain/Indicator: TA98, Metabolic Activation: HAMSTER, LIVER, S-9, AROCLOR 1254 (10%), Method: PREINCUBATION) was “inactive; negative”. For the same compound, the mutagenic call [1] was “inactive; negative”, the mutagenic call (Test System: AMES SALMONELLA TYPHIMURIUM, Strain/Indicator: TA98, Metabolic Activation: RAT, LIVER, S-9, AROCLOR 1254 (10%), Method: PREINCUBATION) was “inactive; negative” and the mutagenic call (Test System: AMES SALMONELLA TYPHIMURIUM, Strain/Indicator: TA100, Metabolic Activation: HAMSTER, LIVER, S-9, AROCLOR 1254 (10%), Method: PREINCUBATION) was “inactive; negative”. The mutagenic call (Test System: AMES SALMONELLA TYPHIMURIUM, Strain/Indicator: TA100, Metabolic Activation: HAMSTER, LIVER, S-9, AROCLOR 1254 (30%), Method: PREINCUBATION) was “inactive; negative”, the mutagenic call [2] was “inactive; negative” and the mutagenic call (Test System: AMES SALMONELLA TYPHIMURIUM, Strain/Indicator: TA100, Metabolic Activation: RAT, LIVER, S-9, AROCLOR 1254 (10%), Method: PREINCUBATION) was “active; positive”. For the same compound, the mutagenic call (Test System: AMES SALMONELLA TYPHIMURIUM, Strain/Indicator: TA100, Metabolic Activation: RAT, LIVER, S-9, AROCLOR 1254 (30%), Method: PREINCUBATION) was “inactive; negative”, the mutagenic call (Test System: AMES SALMONELLA TYPHIMURIUM, Strain/Indicator: TA1535, Metabolic Activation: HAMSTER, LIVER, S-9, AROCLOR 1254 (10%), Method: PREINCUBATION) was “inactive; negative” and the mutagenic call (Test System: AMES SALMONELLA TYPHIMURIUM, Strain/Indicator: TA1535, Metabolic Activation: NONE, Method: PREINCUBATION) was “inactive; negative”. For the same compound, the mutagenic call (Test System: AMES SALMONELLA TYPHIMURIUM, Strain/Indicator: TA1535, Metabolic Activation: RAT, LIVER, S-9, AROCLOR 1254 (10%), Method: PREINCUBATION) was “inactive; negative”, the mutagenic call (Test System: Ames Salmonella typhimurium, Strain/Indicator: TA100, Metabolic Activation: None, Method: Preincubation) was “inactive; negative” and the mutagenic call (Test System: Ames Salmonella typhimurium, Strain/Indicator: TA100, Metabolic Activation: Rat, Liver, S9, Phenobarbital and 5,6-benzoflavone, Method: Preincubation) was “inactive; negative”. For the same compound, the mutagenic call (Test System: Ames Salmonella typhimurium, Strain/Indicator: TA102, Metabolic Activation: None, Method: Preincubation) was “inactive; negative” and the mutagenic call (Test System: Ames Salmonella typhimurium, Strain/Indicator: TA102, Metabolic Activation: Rat, Liver, S9, Phenobarbital and 5,6-benzoflavone, Method: Preincubation) was “inactive; negative”.
For `Nc1ccc2c(c1)CN1C(=O)c3ccccc3C1=N2`, the mutagenic call (Test System: AMES SALMONELLA TYPHIMURIUM, Strain/Indicator: DJ400, Metabolic Activation: RAT, LIVER, S-9, AROCLOR 1254, Method: PREINCUBATION) was “active; positive”, the mutagenic call (Test System: AMES SALMONELLA TYPHIMURIUM, Strain/Indicator: DJ460, Metabolic Activation: RAT, LIVER, S-9, AROCLOR 1254, Method: PREINCUBATION) was “active; positive” and the mutagenic call (Test System: AMES SALMONELLA TYPHIMURIUM, Strain/Indicator: TA98(1,8-DNP6), Metabolic Activation: RAT, LIVER, S-9, AROCLOR 1254, Method: PREINCUBATION) was “active; positive”. For the same compound, the mutagenic call [1] was “active; positive”, the mutagenic call (Test System: AMES SALMONELLA TYPHIMURIUM, Strain/Indicator: TA98, Metabolic Activation: RAT, LIVER, S-9, AROCLOR 1254, Method: PREINCUBATION) was “active; positive” and the mutagenic call [2] was “active; positive”. For the same compound, the mutagenic call [3] was “active; positive”, the mutagenic call (Test System: AMES SALMONELLA TYPHIMURIUM, Strain/Indicator: TA102, Metabolic Activation: NONE, Method: PREINCUBATION) was “active; positive” and the mutagenic call (Test System: AMES SALMONELLA TYPHIMURIUM, Strain/Indicator: TA102, Metabolic Activation: RAT, LIVER, S-9, AROCLOR 1254, Method: PREINCUBATION) was “active; positive”. For the same compound, the mutagenic call (Test System: AMES SALMONELLA TYPHIMURIUM, Strain/Indicator: TA1538(1,8-DNP6), Metabolic Activation: RAT, LIVER, S-9, AROCLOR 1254, Method: PREINCUBATION) was “active; positive”, the mutagenic call (Test System: AMES SALMONELLA TYPHIMURIUM, Strain/Indicator: TA1538, Metabolic Activation: RAT, LIVER, S-9, AROCLOR 1254, Method: PREINCUBATION) was “active; positive” and the mutagenic call (Test System: AMES SALMONELLA TYPHIMURIUM, Strain/Indicator: YG1012, Metabolic Activation: RAT, LIVER, S-9, AROCLOR 1254, Method: PREINCUBATION) was “active; positive”. The mutagenic call (Test System: AMES SALMONELLA TYPHIMURIUM, Strain/Indicator: YG1024, Metabolic Activation: RAT, LIVER, S-9, AROCLOR 1254, Method: PREINCUBATION) was “active; positive”, the mutagenic call (Test System: UDS MOUSE HEPATOCYTES, Strain/Indicator: THY INCORP, Metabolic Activation: NONE, Method: AUTORADIOGRAPHY) was “active; positive” and the mutagenic call (Test System: UDS RAT HEPATOCYTES, Strain/Indicator: THY INCORP, Metabolic Activation: NONE, Method: AUTORADIOGRAPHY) was “active; positive”.
With `O=[N+]([O-])O.O=[N+]([O-])O.[O]=[U]=[O]` the mutagenic call (End Point: In vitro micronucleus, Test System: Rat kidney (NRK-52E) cells, Metabolic Activation: None) was “inactive; negative; depleted uranium tested”.
In the case of `CC(=O)N(O)c1ccccc1C`, the mutagenic call [4] is reported as “inactive; negative”, the mutagenic call [5] is reported as “active; positive” and the mutagenic call [6] is reported as “inactive; negative”. For the same compound, the mutagenic call [7] was “inactive; negative”.
In the case of `C[C@]12CC[C@H](OC(=O)COc3ccc(N(CCCl)CCCl)cc3)C[C@@H]1CC[C@@H]1[C@@H]2CC[C@]2(C)NC(=O)CC[C@@H]12`, the mutagenic call [4] is reported as “inactive; negative”, the mutagenic call [5] is reported as “inactive; negative” and the mutagenic call [6] is reported as “active; positive”. For the same compound, the mutagenic call [7] was “active; positive”, the mutagenic call (Test System: AMES SALMONELLA TYPHIMURIUM, Strain/Indicator: TA1535, Metabolic Activation: NONE, Method: STANDARD PLATE) was “active; positive” and the mutagenic call (Test System: AMES SALMONELLA TYPHIMURIUM, Strain/Indicator: TA1535, Metabolic Activation: RAT, LIVER, S-9, AROCLOR 1254, Method: STANDARD PLATE) was “active; positive”. For the same compound, the mutagenic call (Test System: AMES SALMONELLA TYPHIMURIUM, Strain/Indicator: TA1535, Metabolic Activation: S-9, Method: STANDARD PLATE) was “active; positive”, the mutagenic call (Test System: AMES SALMONELLA TYPHIMURIUM, Strain/Indicator: TA1537, Metabolic Activation: NONE, Method: STANDARD PLATE) was “inactive; negative” and the mutagenic call (Test System: AMES SALMONELLA TYPHIMURIUM, Strain/Indicator: TA1537, Metabolic Activation: RAT, LIVER, S-9, AROCLOR 1254, Method: STANDARD PLATE) was “inactive; negative”. For the same compound, the mutagenic call (Test System: AMES SALMONELLA TYPHIMURIUM, Strain/Indicator: TA1537, Metabolic Activation: S-9, Method: STANDARD PLATE) was “inactive; negative”.
In the case of `Cc1cc2ccccc2c2cc3c(cc12)C=C[C@H](O)[C@H]3O`, the mutagenic call [3] is reported as “active; positive”.

— PubChem BioAssay AID1259407 (Chemical Carcinogenesis Research Information System (CCRIS), 2018)
